Measurements taken from patent EP0368624A2, “Method and composition for stabilizing and solubilizing latex reagents” (Biotrack, Inc., priority 1988, dated 1990).

What was measured:
[1] = Recovery of activity of antibody-latex reagent after drying on plastic (turbidimetric agglutination rate vs liquid control)
Excerpt: An agglutinating polymer was made by covalent attachment of about nine molecules of a peptide antigen to polyaspartic acid (M=15,000). A latex reagent was made by adsorption of a monoclonal antibody (which binds to the peptide antigen) to small latex particles (85 nm diameter) by adsorption. […] The mixture was aspirated into a temperature controlled flow cell of a spectrophotometer with a 1 cm optical path length and rapidly heated to […]. The change of apparent absorbance at 540 nm was then recorded over 20s.
Liquid was removed by exposure to desiccant under a variety of conditions (flowing air, flowing dry N₂, or vacuum).
Additives were added to the latex suspension at the indicated concentrations prior to drying. Recovery is given in Table 2 as a percentage of the activity of a non-dried (liquid) control. […]

[2] = Agglutination of dried hepatitis B virus core antigen coated latex in cartridge with serum samples; design: key: +: A positive reaction was recorded if the latex particles were agglutinated at the end of the track; conditions: serum sample containing antibodies to hepatitis virus core antigen
Protocol: Antigen coated latex (prepared as in Example 5) (1 µL x 1.0% w/v suspended in 0·1M glycine pH 8·4 containing 0·1 6 M NaCl and 3 mM Sodium Azide either with or without 5% sucrose) was coated on the surface of piece of PETG plastic. After drying under a stream of dry nitrogen, the piece was incorporated into a cartridge by lamination of a track excised from double sided adhesive tape (4 mill thick) as described in USP 4,756,884. To test the activity of the dry reagent films, serum samples containing or not containing antibodies to hepatitis virus core antigen were applied to the sample application site and the reaction between the sample and the reagent film observed as the sample flowed over the film and the mixture was drawn down the part of the track distal from the sample application site. A positive reaction was recorded if the latex particles were agglutinated at the end of the track.

[3] = additive concentration 5 % in the aqueous latex suspension applied to the plastic

SMILES | Activity (%) Ref = Liq [1, 3] [%] | further results
O=C([O-])[C@H](O)[C@@H](O)[C@H](O)[C@H](O)CO.[Na+] [35D-Gluconic Acid-Na+, D-Gluconic Acid-Na+] | 41 | 
OC[C@@H](O)C(O)[C@H](O)CO [D-arabitol] | 101 | 
Cl.N[C@H]1C(O)O[C@H](CO)[C@@H](O)[C@@H]1O (stereo partly drawn) [D-glucosamine-HCl] | 25 | 
OC[C@@H](O)[C@H](O)[C@@H](O)CO [D-xylitol] | 92 | 
OC[C@H](O)C(O)[C@@H](O)CO [L-arabitol] | 94 | 
OC[C@@H](O)[C@H](O)[C@@H](O)CO [L-xylitol] | 94 | 
OC[C@@H](O)[C@@H](O)[C@H](O)[C@H](O)CO [Mannitol] |  | Activity (%) Ref = Liq ([1]; additive concentration 4 % in the aqueous latex suspension applied to the plastic): 0%
OC[C@@H](O)[C@@H](O)[C@@H](O)CO [Ribitol] | 70 | 
OC[C@@H](O)[C@@H](O)[C@H](O)[C@@H](O)CO [Sorbitol] | 5 | 
OC[C@H]1O[C@@](CO)(O[C@H]2O[C@H](CO)[C@@H](O)[C@H](O)[C@H]2O)[C@@H](O)[C@@H]1O [Sucrose] |  | Agglutination + sample [2]: +
